These results are taken from publication PMC11421016, “Biotransformation and Epithelial Toxicity of Prenylated Phenolics from Licorice Roots (Glycyrrhiza spp.) in 3D Apical-Out Mucus-Producing Human Enteroids” (Journal of Agricultural and Food Chemistry, 2024).

Data set [1] in a line: Cell viability by WST-1 assay in apical-out enteroids. It is filed as cell-based, human. To be noted: human. On the procedure:
(§1) Cytotoxicity and effects on cell viability after exposure to glab, licoA, and glycy in apical-out and apical-in enteroids (6.25–500 μg mL^–1) and proliferating Caco-2 cells (3.13–100 μg mL^–1) were determined by LDH leakage (Section 2.6.1) and WST-1 assays (Section 2.6.2), respectively. For this, stock solutions of 50 mg mL^–1 of glab, licoA, and glycy in DMSO were used. […] An overview of the experimental conditions for the exposure experiments with glab, licoA, and glycy is shown in Table S2 (Supporting Information). In brief, apical-out and apical-in enteroids were grown for 7–10 days in OGM (∼200 enteroids per dome), after which the medium was changed to ODM (supplemented with 5 μM DAPT) to initiate enteroid differentiation. To generate apical-out enteroids, MG was removed from apical-in enteroids in OGM at day 7–10, as described in Section 2.3, and suspended in supplemented ODM. After 3 days in ODM, the effects on cytotoxicity and cell viability of glab, licoA, and glycy in apical-out and apical-in enteroids (passages between 3 and 17) were assessed after 4 and 24 h of incubation. For apical-out enteroids in a suspension, enteroids were pelleted by centrifugation (2 min, 200g, RT), after which the ODM was removed and 500 μL of the experimental agent was added. […] Caco-2 cells were grown for 48 h after seeding before experiments (passages 14–19) with proliferating cells and for 21 days after seeding (passages 14–33) with differentiated cells.[17] The medium (DMEM supplemented with FCS) was changed every 2 days. For exposure experiments, Caco-2 cells were incubated with glab, licoA, and glycy in DMEM without FCS, as FCS serves as an exogenous source of LDH.[22]
Effects on cell viability after stimulation by glab, licoA, and glycy were assessed by measuring cleavage of the tetrazolium salt WST-1 to formazan catalyzed by cellular mitochondrial dehydrogenases and analyzed using a WST-1 cell viability kit (PromoKine, Heidelberg, Germany), according to the manufacturer’s instructions. Cell viability was expressed as the percentage of the control cells (enteroids or Caco-2 cells grown in a medium) and was calculated with eq 2. [drawing 2] 2 in which exp. value is the UV absorbance at 450 nm (Tecan Spark or Tecan Infinite 200 Pro) and low control is the spontaneous cleavage of WST-1 to formazan by mitochondrial dehydrogenases in untreated enteroids or Caco-2 cells.

Data set [2] deals with human apical-in ileal enteroids. Description: Biotransformation in apical-in ileal enteroids (RP-UHPLC-PDA-MSn). It is filed as in vitro ADME. To be noted: for biotransformation products formed: identified at the basolateral side; for phase I metabolites: up to 24 h incubation. The procedure:
(§2) Biotransformation of glab, licoA, and glycy in apical-out and apical-in enteroids was evaluated after 0, 4, and 24 h of incubation. For this, apical-out enteroids were stimulated with 50 μg mL^–1 (154 μM) glab, or with 100 μg mL^–1 licoA (296 μM), or 100 μg mL^–1 glycy (272 μM), and apical-in enteroids were stimulated with 50 μg mL^–1 glab (154 μM), 50 μg mL^–1 licoA (148 μM), or 50 μg mL^–1 glycy (136 μM). […] For apical-out enteroids, parent compounds and their transformation products were assessed on the enteroids’ apical (facing the medium) and basolateral side (inside the enteroids) and intracellularly. In apical-in enteroids, parent compounds and metabolites were assessed on the basolateral side (facing the medium). For the apical release, apical-out enteroids were pelleted (250g, 3 min, 4 °C), and the supernatant was used for LC-MS analysis, after which the enteroids were washed with PBS. Enteroids in a suspension in fresh PBS were broken up by vigorously pipetting up and down approximately for 20 times, after which enteroids were pelleted and the supernatant was used to determine basolateral release by using LC-MS. Enteroids were washed with PBS, and the enteroids’ cells in fresh PBS were disrupted on ice with a digital sonifier (Branson Ultrasonics Corporation, Danbury, CT, USA) with the following settings: a 5 s pulse, a 10 s pause, an amplitude of 55%, and 12 cycles. Enteroids were pelleted, and the supernatant was used as a measure for intracellular release and measured with LC-MS.
(§3) Samples were separated on a Thermo Vanquish UHPLC system (Thermo Scientific, San Jose, CA, USA) equipped with a pump, a degasser, an autosampler, and a PDA detector, as described elsewhere.[15] Eluents used were (A) LC-MS-grade MQ + 0.1% FA (v/v) and (B) LC-MS-grade ACN + 0.1% FA (v/v). The elution program was started by running isocratically at 1% B for 1.09 min followed by a 1.09–26.16 min linear gradient to 70% B, a 26.16–27.25 min linear gradient to 100% B, and 27.25–32.70 min isocratically at 100% B. The eluent was adjusted to start conditions in 1.09 min followed by equilibration of 5.45 min.
(§4) Mass spectrometric data were acquired using an LTQ Velos Pro linear ion trap mass spectrometer (Thermo Scientific), equipped with a heated ESI probe coupled in-line to the Vanquish UHPLC system, as described elsewhere.[15] Data were processed using Xcalibur 4.1 (Thermo Scientific).
(§5) Quantification of glab, licoA, glycy, and produced metabolites was based on UV absorbance at 280 nm (glab), 340–390 nm (licoA), and 320–370 nm (glycy). For this, a seven-point calibration (0.01–150 μg mL^–1) curve based on external standards of glab, licoA, and glycy (R^2 > 0.999) was used. UV peaks were integrated using the AVALON integration algorithm with the autocalc function (Xcalibur 4.1). Metabolites were quantified as glab, licoA, or glycy equivalents.

For data set [3], the system named is human apical-out ileal enteroids. Description: Biotransformation in apical-out ileal enteroids (RP-UHPLC-PDA-MSn). It is filed as in vitro ADME. Conditions: for sulfation (LC-MS analysis): human ileal apical-out and apical-in enteroids; for biotransformation products formed: released on the apical side; for phase I biotransformation products: up to 24 h incubation. The procedure: as §2, §3, §4, §5

The test system of data set [4] is Gram-positive bacteria. Also noted: method as in PMID 36377761. To be noted: against Gram-positive bacteria, cited from earlier work.
Data set [5] relates to human ileal apical-in enteroids. Description: Cytotoxicity by LDH leakage assay in apical-in enteroids. Type of data set: cell-based. Conditions: 4 h, cutoff 25% vs negative control. On the procedure: as §1
Cytotoxic effects of glab, licoA, and glycy were assessed by measuring leakage of intracellular lactate dehydrogenase (LDH) in the supernatant and analyzed using an LDH cytotoxicity detection kit (Roche Applied Science, Almere, The Netherlands), according to the manufacturer’s instructions. The LDH activity in the supernatant was expressed as the percentage of the maximum releasable LDH in enteroids or Caco-2 cells (enteroids or Caco-2 cells treated with 1% (v/v) Triton X-100) and calculated with eq 1. [drawing 1] 1 in which exp. value is the UV absorbance at 492 nm (Tecan Spark or Tecan Infinite 200 Pro, Tecan Group Ltd., Zürich, Switzerland), background control is the medium with corresponding concentration of glab, licoA, or glycy, and high control is the maximum releasable LDH in enteroids or Caco-2 cells. For enteroids, each well was used as its own positive control by taking the total releasable LDH of each well after incubation.

Read-outs that look alike come from different tables or passages of the source.

As for `C=CC(C)(C)c1cc(/C=C/C(=O)c2ccc(O)cc2)c(OC)cc1O` [licochalcone A], the viability at 4 h, 500 μg mL^–1 in data set [1] (apical-out ileal enteroids, 500 μg mL^–1, 4 h exposure, negative control set at 100%, read-out: cell viability (WST-1)) worked out at 77 ± 22%. The “% biotransformation to glucuronide compared to parent at t = 0 h” value in data set [2] (24 h exposure, 50 μg mL^–1, basolateral side) was “comparably low”. For the same molecule, in data set [2], the biotransformation products formed entry was “transformed to their glucuronides” and the “phase I metabolites” value was “no phase I metabolites were identified”. Besides, the “% biotransformation to glucuronide compared to parent at t = 0 h” value in data set [3] (24 h exposure, 100 μg mL^–1 (licoA, glycy), apical side) is on record as “comparably low”. Moreover, in data set [3], the “sulfation (LC-MS analysis)” value is given as “did not reveal sulfation”, the biotransformation products formed result is recorded as “glucuronide metabolites” and the “phase I biotransformation products” value is on record as “No phase I biotransformation products”. Also, the “minimum inhibitory concentration (MIC)” value in data set [4] is recorded as 12.5 μg mL^–1. Further, the “minimum inhibitory concentration (MIC)” value in data set [4] (equivalent of 12.5 μg mL^–1) is 37 µM. In data set [5], the “highest nontoxic concentration (LDH)” value is given as “around 300 μM”.
In data set [1], `CC1(C)C=Cc2c(ccc3c2OC[C@@H](c2ccc(O)cc2O)C3)O1` [glabridin] gave a viability at 4 h, 500 μg mL^–1 of 21 ± 14% and a viability at 4 h, 771 µM of 29%. For the same molecule, in data set [2], the biotransformation products formed result is “transformed to their glucuronides” and the “phase I metabolites” value is given as “no phase I metabolites were identified”. In addition, in data set [3], the “sulfation (LC-MS analysis)” value is given as “did not reveal sulfation”, the biotransformation products formed result is listed as “glucuronide metabolites” and the “phase I biotransformation products” value is on record as “No phase I biotransformation products”. The “minimum inhibitory concentration (MIC)” value in data set [4] is 12.5 μg mL^–1. Further, the “minimum inhibitory concentration (MIC)” value in data set [4] (equivalent of 12.5 μg mL^–1) is 39 µM. In data set [5] (listed as Glabridin), the “highest nontoxic concentration (LDH)” value was found to be 100 μg mL^–1. Moreover, the “highest nontoxic concentration (LDH)” value in data set [5] (listed as glab) is on record as “around 300 μM”.
As to `COc1c(CC=C(C)C)c(O)cc2oc(=O)c(-c3ccc(O)cc3O)cc12` [glycycoumarin], the viability at 4 h, 500 μg mL^–1 in data set [1] came out at 77 ± 13%. In addition, in data set [2], the biotransformation products formed entry is reported as “transformed to their glucuronides” and the “phase I metabolites” value is listed as “no phase I metabolites were identified”. In data set [3], the “sulfation (LC-MS analysis)” value is listed as “did not reveal sulfation”, the biotransformation products formed entry is “glucuronide metabolites” and the “phase I biotransformation products” value was “No phase I biotransformation products”. The “minimum inhibitory concentration (MIC)” value in data set [4] is recorded as 12.5 μg mL^–1. Also, the “minimum inhibitory concentration (MIC)” value in data set [4] (equivalent of 12.5 μg mL^–1) is 34 µM. The “highest nontoxic concentration (LDH)” value in data set [5] is listed as “around 300 μM”.
